Measured values as given in patent publication US6380230B1, “Carboxamidothiazole derivatives, preparation, pharmaceutical compositions containing them” (Sanofi-Synthelabo, priority 1997, dated 2002).

Assays:
human CCK-A receptor [1] = molecular target: T1, human CCK-A receptor (Homo sapiens, UniProt P32238); assay: displacement of [125I]-CCK from 3T3 cells expressing the human CCK-A recombinant receptor; format: binding; settings: read-out: affinity for the human CCK-A receptor (IC50)
T1 construct: expressed in transfected cells; host or cells: 3T3 cells
T1 sequence (P32238 1-428): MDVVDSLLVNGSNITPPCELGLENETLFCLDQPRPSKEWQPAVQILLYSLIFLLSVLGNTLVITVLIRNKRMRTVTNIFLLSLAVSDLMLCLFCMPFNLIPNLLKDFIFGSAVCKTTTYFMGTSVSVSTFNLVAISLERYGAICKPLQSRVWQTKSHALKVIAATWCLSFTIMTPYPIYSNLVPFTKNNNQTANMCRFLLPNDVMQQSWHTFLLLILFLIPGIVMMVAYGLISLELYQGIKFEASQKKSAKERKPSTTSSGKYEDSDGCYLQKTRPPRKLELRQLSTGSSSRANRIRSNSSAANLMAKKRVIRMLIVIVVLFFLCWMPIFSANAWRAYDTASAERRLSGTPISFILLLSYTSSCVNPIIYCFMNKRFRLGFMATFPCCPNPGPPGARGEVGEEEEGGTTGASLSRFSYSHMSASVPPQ

[2] = test system: Female Swiss albino CD1 mice; assay: gastric drainage (charcoal meal) in mice, intraperitoneal administration; format: in vivo; settings: intraperitoneally
Procedure: The compounds of the present invention were also studied in vivo, by evaluating their capacity to block gastric drainage in mice.
A study of the agonist effect of the compounds on gastric drainage was carried out as follows. Female Swiss albino CD1 mice (20-25 g) are placed on a solid fast for 18 hours. On the day of the experiment, the products (as a suspension in 1% carboxymethyl cellulose solution or in 0.6% methylcellulose solution) or the corresponding vehicle are administered intraperitoneally, 30 minutes before administering a charcoal meal (0.3 ml per mouse of a suspension in water of 10% charcoal powder, 5% gum arabic and 1% carboxymethyl cellulose or 0.6% methyl cellulose). The mice are sacrificed five minutes later by cervical dislocation, and gastric drainage is defined as the presence of charcoal in the intestine beyond the pyloric sphincter (Eur. J. Pharmacol., 1993, 232, 13-19).

human CCK-A receptor [3] = molecular target: T1, human CCK-A receptor; assay: mobilization of intracellular calcium ([Ca++]i, Fura-2) in 3T3 cells expressing the human CCK-A receptor; format: cell-based
Procedure: The calcium concentration [Ca^++]i is evaluated with Fura-2 as fluorescent probe, by the double excitation wavelength method. The ratio of the fluorescence emitted at two wavelengths gives the concentration of [Ca^++]i after calibration (Grynkiewicz G. et al., J. Biol. Chem., 1985, 260, 3440-3450).

human CCK-B receptor = molecular target: T2, human CCK-B receptor (Homo sapiens, UniProt P32239); assay: in vitro binding to the human CCK-B receptor; settings: read-out: affinity for the human CCK-B receptor (IC50)
T2 sequence (P32239 1-447): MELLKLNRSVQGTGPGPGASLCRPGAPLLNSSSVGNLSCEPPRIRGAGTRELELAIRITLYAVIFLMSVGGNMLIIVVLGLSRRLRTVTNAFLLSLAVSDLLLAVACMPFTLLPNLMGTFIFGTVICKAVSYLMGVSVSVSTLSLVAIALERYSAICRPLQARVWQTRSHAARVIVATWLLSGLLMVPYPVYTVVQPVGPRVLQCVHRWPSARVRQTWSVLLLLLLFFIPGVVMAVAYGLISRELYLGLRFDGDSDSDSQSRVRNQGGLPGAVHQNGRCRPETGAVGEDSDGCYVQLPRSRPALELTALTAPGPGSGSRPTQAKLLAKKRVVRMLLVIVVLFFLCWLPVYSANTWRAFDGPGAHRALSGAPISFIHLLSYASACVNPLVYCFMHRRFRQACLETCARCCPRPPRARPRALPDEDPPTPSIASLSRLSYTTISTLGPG

COc1cc(-c2nc(NC(=O)c3cc4cc(C)cc(C)c4n3CC(=O)O)sc2CCC2CCCCC2)c(OC)cc1Cl.O=C(O)C(F)(F)F [Example 5, 2-(4-(4-Chloro-2,5-dimethoxyphenyl)-5-(2-cyclohexylethyl)-2-thiazolylcarbamoyl)-5,7-dimethyl-1-indoleacetic acid trifluoroacetic acid.]
IC50 (human CCK-A receptor [1]): 0.56 nM
ED50 on gastric drainage [2]: 1.9 µg/kg
effect on gastric drainage [2]: completely inhibits gastric drainage
agonist behaviour on intracellular calcium relative to CCK (human CCK-A receptor [3]; increase to the same level as CCK itself): total agonist
EC50 (human CCK-A receptor [3]; read-out: EC50 (effective concentration which induces 50% of the effect of CCK) for increase in intracellular calcium concentration, 3T3 cells expressing human CCK-A receptor): 1.27 nM
IC50 (human CCK-B receptor): 162 nM
